Data from patent publication US4863899A, “Biologically active polypeptides” (priority 1987, dated 1989).

Tests used:
normal rat kidney cells = type: cell-based; conditions: on a ng equivalent basis
anti-KLH-peptide 1 IgG = assay: Solid phase RIA, 125I anti-KLH-peptide 1 IgG on BSA-peptide 1; type: binding, rabbit
Experimental: TGF peptide 1 was coupled to keyhole limpet hemocyanin (KLH) or bovine serum albumin (BSA) by thiol/maleimide linkage (King et al. (1979) J. Immunol. Methods 28, pp. 201-206). Carrier-peptide complexes were purified by gel filtration. An average of 60 moles peptide/mole KLH and 20 moles peptide/mole BSA was achieved. Rabbits were immunized with the KLH-peptide 1 conjugate by multiple subcutaneous (s.c.) and intramuscular (i.m.) injections of 2 mg protein in complete Freund's adjuvant. Rabbits were boosted s.c. every two weeks with the immunogen in incomplete Freund's adjuvant. The IgG fraction of the antiserum after 5 boosts was used for immunoassays and radiolabeled using Na^125 I (NEN) and Enzymobeads (Bio-Rad) to 4×10^5 cpm/μg protein. Polyvinyl chloride 96-well plates (Costar) were coated with 200 μg/mL BSA-peptide 1 conjugate and countercoated with 10% normal rabbit serum in phosphate-buffered saline. Plates were incubated for 4 hours at 37° C. with [^125 I]anti-KLH-peptide 1 IgG (50,000 cpm/well) in the presence or absence of inhibitors, washed and individual wells were counted.

EGF receptor = target: T1, EGF receptor (Homo sapiens, UniProt P00533); assay: 125I-EGF radioreceptor assay on formalin-fixed A431 human carcinoma cells; type: binding
T1 construct: subconfluent monolayers of formalin-fixed A431 human carcinoma cells; endogenous in cells; host or cells: A431 human carcinoma cells, formalin-fixed
Experimental: The fixed cells were washed twice with 0.5 ml of binding buffer (Dulbecco's modified Eagle's medium containing 1 mg/ml of bovine serum albumin and 50 mM 2-[bis(2-hydroxyethyl)amino]ethanesulfonic acid, pH 6.8).
TGF was quantitated in a radioreceptor assay based on receptor cross-reactivity with mouse submaxillary gland epidermal growth factor (mEGF).

[1] = tested on: 125I-labeled rat TGF binding to EGF receptors of A431 cells; assay: Binding of 125I-labeled rat TGF to A431 cells; design: species or system human
Experimental: was synthesized using the solid-phase technique of Ohgak et al. (1983) Journal of Immunol. Meth. 57, pp. 171-184. This oligopeptide was then coupled to keyhole limpet hemocyanin in accordance with the procedure of Baron et al. (1982) Cell 28, pp. 395-404, and used to immunize rabbits (Baron et al. (1982) Cell 28, pp. 395-404) and sheep (Lerner (1982) Nature 299, pp. 592-596). Antisera were assayed against peptide by a peroxidase-linked immunoassay (Kirkegaard and Perry Laboratories, Gaithersberg, Md.) and against homogeneous rat TGF (purified according to Example II above), by immunoprecipitation (Bister et al. (1980) J. Virol. 36, pp. 617-621) and Western blotting techniques (Burnett (1981) Analyt. Biochem. 112, pp. 195-203). Binding of ^125 I-labeled rat TGF and mouse EGF (Bethesda Research Labs, Bethesda, Md.) to A431 cells grown in 96-well microtiter plates was as described in Pross et al. (1977) Proc. Natl. Acad. Sci. U.S.A. 74, pp. 3918-3921.
Human epidermoid carcinoma A431 cells have in excess of 10^6 EGF receptors per cell (Fabricant et al. (1977) Proc. Natl. Acad. Sci. U.S.A. 74, pp. 565-569). TGF competes with EGF for binding to these receptors. Binding of ^125 I-labeled rat TGF to these cells was blocked by an excess of unlabeled EGF and by antiserum to peptide. […]

[2] = tested on: normal rat kidney fibroblasts, clone 49F; assay: Soft agar growth assay; type: cell-based; conditions: tested with up to 10 μg
Experimental: The assay for colony growth in soft agar, using normal rat kidney fibroblasts, clone 49F, was performed as reported in Todaro et al. (1980) Proc. Natl. Acad. Sci. USA 77, pp. 5258-5262. Lyophilized samples to be tested were reconstituted in 0.5 ml of Dulbecco's modified Eagle's medium, supplemented with 10% calf serum. 1.5 ml of 0.5% (w/v) agar (Difco) in the supplemented medium and 0.5 ml of supplemented medium containing 2.3×10^4 cells were added. 2.3 ml of the resultant mixture were pipetted on a 2-ml base layer (0-5% agar in supplemented medium) in 60-mm Petri dishes (Falcon). The cells were incubated at 37° C. in a humidified 5% CO2 /95% air atmosphere. The assay was read unfixed and unstained at 5 days and at 10-14 days.

[3] = tested on: antiserum against peptide III; assay: Radioimmunoassay, inhibition of precipitation of 125I-peptide III; type: binding, rabbit
Experimental: Rabbits were immunized by subcutaneous injection of 1 mg of conjugate injected subcutaneously at four separate sites. Two booster injections were administered at bi-weekly intervals following the initial injection. The serum used in this study was collected eighty days after the initial injection. An immunoglobulin fraction of this serum was prepared by ammonium sulfate precipitation. The product of antibodies specific for immunizing peptide was monitored with a solid phase enzyme-linked immunoabsorbent assay.
Reactants were mixed in a final volume of 50 microliters of a solution containing: 20 mM sodium phosphate, at pH 7.4; 200 mM NaCl: 40 mM dithiothreitol; 0.1% (w:v) BSA; 0.1% (w:v) NaN3 : ^125 I-peptide III; (10^4 cpm); antiserum at a final dilution of 1/15,000; and other additions, as specified. The reaction was initiated by the addition of antiserum and continued at 23° C. for 90 minutes. An equal volume of 10% formalin-fixed Staphalococcus A (Pansorbin, Calbiochem) was then added and incubation was continued for an additional 30 minutes at 23° C. The immunoadsorbant was removed by sedimentation through a cushion of 10% (w:v) sucrose and the amount of bound ^125 I-peptide III was determined using a gamma counter. Under these conditions, approximately 25% of ^125 I-peptide was bound by antibody in the absence of competitor. The amount of bound peptide III was corrected for non-specific binding measured in the absence of antibody (less than 5% of the total) and expressed as a percentage of maximal binding. Concentrations of competitors were expressed as the amount of peptide III required to give an equivalent inhibition of precipitation.

EGF: mouse submaxillary gland epidermal growth factor
colonies in soft agar (normal rat kidney cells): 120 colonies | inhibition of antibody reaction with BSA-TGF peptide (anti-KLH-peptide 1 IgG): did not cause significant inhibition | amount required to inhibit EGF binding by 50% (EGF receptor; 0.4 ng 125I-EGF, 1 h at 22° C.): 1.1 ng | IC50 (EGF receptor; 125I-EGF at 0.33 nM (Example XI), read-out: concentration giving half-maximal inhibition of 125I-EGF binding): 0.3 to 0.5 nM | binding of 125I-labeled rat TGF to A431 cells [1]: blocked | increase in DNA synthesis relative to unstimulated serum deprived cells (mink fibroblasts): 59% | stimulation of growth in soft agar [2]: does not stimulate growth | highest concentration without inhibition of precipitation of 125I-peptide III [3]: greater than 1 μM | Relative Inhibitory Activity ([3]; half-maximal inhibitory concentration relative to peptide III, standard RIA, > = highest concentration tested): > 1500
